Measured values published in patent US5688936A, “Vesicle membrane transport proteins” (priority 1993, dated 1997).
Entries after “also recorded” stand apart in the source; their conditions may differ.

Assays:
[1] = biological target: T1, chromaffin granule amine transport protein (Rattus norvegicus, UniProt Q01818); assay: Quantitative [3H]dopamine transport assay with mpp^res CHO cell homogenate; type: biochemical; settings: dose-response, 2-minute incubation (FIG. 15C)
T1 sequence (Q01818 1-521): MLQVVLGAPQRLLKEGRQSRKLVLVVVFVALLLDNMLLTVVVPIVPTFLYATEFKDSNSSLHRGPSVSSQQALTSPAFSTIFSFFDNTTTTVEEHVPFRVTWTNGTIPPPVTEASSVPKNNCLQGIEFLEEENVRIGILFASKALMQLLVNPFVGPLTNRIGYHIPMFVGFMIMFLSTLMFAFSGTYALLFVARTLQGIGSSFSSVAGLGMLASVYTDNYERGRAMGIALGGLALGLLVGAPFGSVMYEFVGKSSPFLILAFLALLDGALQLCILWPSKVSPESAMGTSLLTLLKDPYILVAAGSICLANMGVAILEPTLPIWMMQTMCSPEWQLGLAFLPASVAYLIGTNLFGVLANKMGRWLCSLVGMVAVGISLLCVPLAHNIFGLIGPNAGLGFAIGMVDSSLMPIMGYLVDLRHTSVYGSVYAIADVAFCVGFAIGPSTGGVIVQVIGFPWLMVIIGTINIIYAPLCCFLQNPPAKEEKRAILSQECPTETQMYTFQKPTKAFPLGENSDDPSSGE
Experimental: The quantity of label bound is measured after filtration of the assay mixture. Preferably, the label is a radioactive label. […] This can be done by standard graphic kinetic techniques such as the Lineweaver-Burke plot.
Incubation was performed at 29° C. for the time period indicated (from 2 minutes to 30 minutes). The assay was terminated by dilution in cold assay buffer followed by filtration through 0.2 μm Supor™ 200 membranes (Gelman, Ann Arbor, Mich.) and the bound radioactivity was measured. The cells used for the quantitative assay are selected in MPP^+ or screened with antibody to ensure that they express the transporter at high levels, as it is difficult to measure activity in this assay at low levels of transporter expression.
The quantitative transport test was performed as described above on wild-type CHO cells and mpp^res CHO cells.

[2] = system: bacterial BMR transporter; settings: cited from earlier work
transfected CHO cells = assay: Survival/selection/growth of transfected CHO cells in MPP+; type: cell-based, Chinese hamster; settings: reserpine concentration not stated
Experimental: Using the above methods, the PC12 cDNA library constructed in the plasmid expression vector CDM8 was transfected into CHO cells. Using the selectable marker RSV- neo (Walker, Weizmann Institute, Israel), […] independent stable transformants were obtained after selection in the neomycin analogue G418 at 400 μg/ml effective dose. These cells were then selected at 40% confluence in 1 mM MPP^+. […] However, at four weeks, a colony of cells without refractile inclusions appeared and rapidly covered the plate. The apparently normal growth of these cells in the presence of 1 mM MPP^+ stands in marked contrast to all of the resistant clones obtained without transfection, which grew very slowly if at all. […] However, at 1 mM MPP^+, the resistant cells did show some toxicity, particularly when the assay was performed at higher cell density.
To identify the cDNA sequences responsible for conferring resistance to MPP^+, integrated plasmids were rescued from the primary CHO transformant obtained as described above in Example 1. […] The primary MPP^+ -resistant CHO transformant was amplified in culture and following cell lysis in 5M guanidinium isothiocyanate, the high molecular weight DNA prepared by repeated precipitation in isopropanol. After digestion with Not I, which cleaves the CDM8 vector once downstream of the cDNA insertion site as well as at rare eight-nucleotide recognition sites elsewhere in the genome, the DNA was religated and transformed into E. coli by electroporation as described by Stern-Bach et al., J. Biol. Chem. 265:3961-3966 (1990). Four pools of the derived plasmids containing approximately 50 colonies each were transfected into CHO cells and after two days were selected in 1 mM MPP^+. Four weeks later, one pool gave rise to several MPP^+ -resistant colonies, two pools gave rise to 1-2 colonies and the fourth pool and CDM8 vector gave rise to no healthy, resistant colonies. Restriction enzyme analysis of the plasmids in the pool conferring the highest frequency of resistance to MPP^+ indicated three independent clones of 1.0, 1.3 and 2.5 kb. […]

Question: Which results are given for `COC(=O)[C@H]1[C@H]2C[C@@H]3c4[nH]c5cc(OC)ccc5c4CCN3C[C@H]2C[C@@H](OC(=O)c2cc(OC)c(OC)c(OC)c2)[C@@H]1OC` [reserpine]?
Answer: inhibition of dopamine transport [1]: inhibition by both reserpine and tetrabenazine; inhibition of bacterial BMR transporter [2]: inhibits; reversal of MPP+ resistance of transformants (transfected CHO cells): reversal of MPP^+ resistance; also recorded: reversible; also recorded: reversed
